Experiments:
[1] = biological target: binding of AR to ELK1 (Homo sapiens, UniProt P10275); assay: SPR competition: inhibition of binding of AR (analyte) to immobilized ELK1; conditions: AR 200 nM as analyte
Protocol: The sensor surface was regenerated between experiments by dissociating any formed complex in HBS-N buffer for 30 min, followed by a further 30-min stabilization period. After regeneration, the SPR signal returned to the original level (baseline). In all cases, baseline was established in the presence of the vehicle used for the compounds (DMSO) appropriately diluted in HBS-N buffer. The binding curves were analyzed using the heterogeneous analyte competition model. The kinetic curves were analyzed for a one-to-one Langmuir fitting model provided by with the Biacore 3000 instrument software.

[2] = tested on: AR recruitment to chromatin in LNCaP cells; assay: Chromatin immunoprecipitation (ChIP) with AR antibody in LNCaP cells; format: cell-based; conditions: R1881 10 nM + KCI807 20 uM, 2h
Protocol: FIGS. 2E and 2F are graphs showing results of tests in which LNCaP cells were treated with R1881 (10 nM), R1881 (10 nM)+KCI807 (20 uM), or vehicle for 2h. The cells were fixed and subjected to the chromatin immunoprecipitation (ChIP) assay using antibody to AR. ChIP signals from established sites of AR recruitment by ELK1 (FIG. 2E) or from canonical ARE enhancer sites associated with the KLK3 and TMPRSS2 genes (FIG. 2F) are plotted as percent of input DNA.
The ability of KCI807 to selectively block recruitment of AR by ELK1 to chromatin in situ was tested.

[3] = tested on: HEK293 (adenovirus transformed kidney fibroblasts), AR-negative; assay: Cell monolayer growth assay (MTT); format: cell-based
Protocol: FIG. 12C is a graph showing the effect of KCI807 on in vitro growth of AR-negative cell line HEK293 cells measured by the MTT assay. All values were plotted relative to the Day zero value.
Cells were trypsinized and 3000-4000 cells/well were seeded in 96-well plates coated with poly-D-lysine. The cells were seeded in phenol red-free medium supplemented with 10% FBS, 100 units/ml penicillin, 100 μg/ml streptomycin, 2 mM L-glutamine mixture and sodium pyruvate (1 mM) for LNCaP cells and phenol red-free medium supplemented with 10% FBS, 100 units/ml penicillin, 100 μg/ml streptomycin and 2 mM L-glutamine mixture for VCaP, 22Rv1, DU145, HeLa, HEK293 and H1650 cells. The cells were grown at 37° C. in 5% CO2. Twenty four hours after seeding in the 96-well plates, the cells were treated with the indicated concentration of KCI807 or DMSO (vehicle). The cells were re-treated on Day 3 by removing half the volume of medium and replacing it with fresh treated medium. Cell viability was determined using the MTT assay from day zero until day five. MTT (10 μL, 5 mg/mL) was added to each well and incubated for 2h at 37° C. The formazan crystal sediments were dissolved in 100 μL of DMSO, and the absorbance at 570 nm was measured using the BioTek Synergy 2 Microplate Reader (BioTek, Winooski, Vt.). The assay was conducted in sextuplicate wells and values were normalized to day zero.

[4] = Metabolite identification in serum of treated mice by LC-MS/MS; format: in vivo, mouse; conditions: 250 mg/kg every other day
From the text: To identify potential metabolites of KCI807 in mice, serum and liver samples collected from the control (untreated) and KCI807-treated mice were subjected to the LC-MS/MS analysis. Sample preparation and chromatographic separation were the same as that described above. Column eluents of the control and drug-treated samples were surveyed using different scan modes including full scan, product scan, and multiple reaction monitoring scan. […] The […] was operated under the optimized condition as for KCI807, and hypothesized theoretical mass transitions for potential metabolites were monitored (see Tables 3 and 4).
If a chromatographic peak monitored at the theoretical transition(s) corresponding to a particular metabolite was identified in the drug-treated samples but not in the control (untreated) samples, this metabolite was identified as a metabolite of KCI807, see FIG. 20.
Serum from mice that were injected with 250 mg/kg of 5,3′-Dihydroxyflavone every other day for two weeks was analyzed to identify potential metabolites by LCMS using hypothesized mass transitions. […]

Chain of binding of AR to ELK1 (P10275 whole entry): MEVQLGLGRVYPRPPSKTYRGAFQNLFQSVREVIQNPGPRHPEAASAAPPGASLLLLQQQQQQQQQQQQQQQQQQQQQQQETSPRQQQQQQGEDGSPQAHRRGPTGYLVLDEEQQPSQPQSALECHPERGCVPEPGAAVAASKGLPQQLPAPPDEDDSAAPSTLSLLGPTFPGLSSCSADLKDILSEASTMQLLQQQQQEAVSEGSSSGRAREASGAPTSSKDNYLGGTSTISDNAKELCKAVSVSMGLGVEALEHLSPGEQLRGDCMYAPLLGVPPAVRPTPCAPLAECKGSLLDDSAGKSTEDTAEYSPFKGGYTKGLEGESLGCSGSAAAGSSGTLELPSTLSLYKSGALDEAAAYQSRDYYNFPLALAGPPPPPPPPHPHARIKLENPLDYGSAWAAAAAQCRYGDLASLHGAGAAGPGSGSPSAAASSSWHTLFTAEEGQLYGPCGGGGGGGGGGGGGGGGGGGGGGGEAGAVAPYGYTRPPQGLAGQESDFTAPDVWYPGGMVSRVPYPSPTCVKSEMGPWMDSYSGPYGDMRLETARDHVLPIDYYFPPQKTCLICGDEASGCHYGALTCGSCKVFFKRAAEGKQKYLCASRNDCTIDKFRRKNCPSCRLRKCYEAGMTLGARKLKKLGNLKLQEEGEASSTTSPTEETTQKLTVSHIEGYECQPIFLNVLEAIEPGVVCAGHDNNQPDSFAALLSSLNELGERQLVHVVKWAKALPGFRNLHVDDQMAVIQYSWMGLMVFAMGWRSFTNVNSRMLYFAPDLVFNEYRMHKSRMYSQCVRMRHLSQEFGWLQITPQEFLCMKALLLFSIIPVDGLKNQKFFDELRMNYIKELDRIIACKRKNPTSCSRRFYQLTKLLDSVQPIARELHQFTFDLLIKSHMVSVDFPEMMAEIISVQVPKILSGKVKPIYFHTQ

## O=c1cc(-c2cccc(O)c2)oc2cccc(O)c12 [KCI807, 5,3′-dihydroxyflavone]
[1]
  inhibition of binding of AR to immobilized ELK1: blocked binding
[2]
  AR association with chromatin sites at which ELK1 recruits AR: prevented association of AR
  AR recruitment at canonical ARE enhancer sites (KLK3, TMPRSS2): did not affect AR recruitment
[3]
  growth of HEK293 cells: did not appreciably affect the growth
[4]
  major metabolites / compounds identified in plasma or serum: glucuronidation and other modifications at the 3′ position
[4]; listed as 5,3′-Dihydroxyflavone
  major metabolites / compounds identified in plasma or serum: Unmetabolized compound and a single glucuronide metabolite modified at the 3′-OH position
